# US10858369B2, “Pseudopolymorphic forms of a HIV protease inhibitor” (Janssen Sciences Ireland Unlimited Company, priority 2002, dated 2020)
# Assays:
# [1] = Thermogravimetry of Form A, before and after Adsorption/Desorption tests, and at 25° C. under dry nitrogen; type: physicochemical
# Experimental: The TG curve was recorded on a TA Instrument Hi-Res TGA 2950 thermogravimeter at the following conditions:
# initial temperature: room temperature
# final condition: 300° C. or <80[(w/w) %]
# The loss of weight at temperatures up to 80° C. is mainly due to the evaporation of solvent (water) present in the sample. The loss of weight at temperatures above 80° C. is mainly due to the evaporation of solvent (ethanolate) present in the sample.
# The loss of weight at 25° C. after 10 hours was around 0.6%. This was due to the evaporation of solvent.
# [2] = Randomized, placebo-controlled, double-blind, multiple dose escalation trial: safety, tolerability and pharmacokinetics after oral administration
# [3] = Approximate solubility in different solvents at approximate 23° C.; type: physicochemical; conditions: thermodynamic from solid
# [4] = Adsorption-Desorption Hydratation Tests; type: physicochemical; conditions: 25° C., RH cycle repeated 11 times
# Experimental: equilibrium: ≤0.0005% in 5 min. or 90 min.
# data interval: 0.05% or 2 min
# cycle RH (%) adsorption/desorption: 5.95 repeat the cycle 11 times
# At the end of this test a loss of weight of 5.2% was registered. […] The ADS/DES hydratation test curves are collected in FIG. 19.
# [5] = Adsorption-Desorption tests (vapor sorption, weight change with respect to atmospheric humidity, 25° C.); type: physicochemical
# Experimental: drying temperature: 40° C.
# equilibrium: ≤0.05% in 5 min. or 60 min.
# data interval: 0.05% or 2 min.
# At the drying step about 0.6% weight loss was registered.
# About 21 mg of Form K were transferred into a VTI vapor sorption analyzer model SGA100 and the weight change with respect to the atmospheric humidity was recorded at the following conditions:
# drying temperature: 30° C.
# data interval: 0.05% or 2.0 min.
# Form K is hygroscopic. […] Form K adsorbed up to 1.5% water at high relative humidity.
# A different study of the adsorption and desorption of water by Form K at 25° C. at different conditions of relative humidity was investigated on an amount of about 18 mg of the mesylate solvate. The weight change as a function of relative humidity was registered.
# [6] = Aqueous solubility in solvents with different pH (excess solute equilibrated at 20° C., UV spectrometry); type: physicochemical; conditions: at least 24 hours
# Experimental: Further solubility investigations were performed in function of pH. […] An excess of the solute was equilibrated with the solvent at 20° C. for at least 24 hours. After removing the undissolved compound, the concentration in solution was determined using UV spectrometry.
# Aqueous solubilities of Form B were measured in solvents with different pH. An excess of the solute was equilibrated with the solvent at 20° C. for at least 24 hours. After removing the undissolved compound, the concentration in solution was determined using UV spectrometry.
# Aqueous solubilities of Form K were measured in solvents with different pH. An excess of the solute was equilibrated with the solvent at 20° C. for at least 48 hours. After removing the undissolved compound, the concentration in solution was determined using UV spectrometry.
# [7] = Solubility in function of HPβCD (hydroxpropyl-β-cyclodextrin); type: physicochemical; conditions: 2 days at 20° C.
# Experimental: An excess of product was equilibrated with the solvent during 2 days at 20° C. After removing the undissolved compound, the concentration in solution was determined using UV spectrometry.
smiles,measurement,setting,value
"CC(C)CN(C[C@@H](O)[C@H](Cc1ccccc1)NC(=O)O[C@H]1CO[C@H]2OCC[C@H]21)S(=O)(=O)c1ccc(N)cc1 [Form A, (3R,3aS,6aR)-hexahydrofuro [2,3-b] furan-3-yl (1S,2R)-3-[[(4-aminophenyl)sulfonyl] (isobutyl)amino]-1-benzyl-2-hydroxypropylcarbamate]",loss of weight (TG),"[1]; 25° C. under dry nitrogen atmosphere, after 10 hours",around 0.6%
same,TG (% weight change) >80° C.,[1]; Form A as such,7.1%
same,TG (% weight change) Up to 80° C.,[1]; Form A as such,0.3%
same,TG (% weight change) >80° C.,[1]; after A/D hydratation test,0.5%
same,TG (% weight change) Up to 80° C.,[1]; after A/D hydratation test,5.4%
same,TG (% weight change) >80° C.,[1]; after ADS/DES,4.0%
same,TG (% weight change) Up to 80° C.,[1]; after ADS/DES,2.9%
same,unchanged Form A excreted in the urine,[2]; all dose levels,Less than 2%
same,time to reach steady-state plasma concentrations,"[2]; oral, repeated dosing b.i.d. or t.i.d., healthy subjects",≤ 3 days
same,dose-proportionality of Cmax (maximum conc.),[2]; with respect to dose per intake,dose-proportional
same,solubility,"[3]; organic solvent or mixture, 1-Methoxy-2-propanol",160000 to 213000 µg/mL
same,solubility,"[3]; organic solvent or mixture, 2-Propanol",< 3400 µg/mL
same,solubility,"[3]; organic solvent or mixture, Acetone",106000 to 211000 µg/mL
same,solubility,"[3]; organic solvent or mixture, Dichloromethane",105000 to 209000 µg/mL
same,solubility,"[3]; organic solvent or mixture, Ethanol absolute",< 3400 µg/mL
same,solubility,"[3]; organic solvent or mixture, Ethylacetate",71000 to 107000 µg/mL
same,solubility,"[3]; organic solvent or mixture, Ethylmethylketone",102000 to 204000 µg/mL
same,solubility,"[3]; organic solvent or mixture, Heptane",< 3400 µg/mL
same,solubility,"[3]; organic solvent or mixture, Isopropylether",< 3400 µg/mL
same,solubility,"[3]; organic solvent or mixture, Methacyanate",> 200000 µg/mL
same,solubility,"[3]; organic solvent or mixture, Methanol",< 3400 µg/mL
same,solubility,"[3]; organic solvent or mixture, Tetrahydrofurane",102000 to 203000 µg/mL
same,solubility,"[3]; organic solvent or mixture, Toluene",< 3500 µg/mL
same,solubility,[3]; water,< 3500 µg/mL
same,form after the hydratation test,[4],transferred into a hydrated form
same,loss of weight at the end of the test,[4],5.2%
same,hygroscopicity,[5]; 25° C.,not hygroscopic
same,loss of weight during the desorption cycle,[5]; 25° C.,1.4%
same,obtained product after ADS/DES,[5]; 25° C.,mixture of ethanolate form and hydrated form
same,weight loss at the drying step,"[5]; initial drying step (drying temperature 40° C. Form A, 30° C. Form K)",about 0.6%
same,solubility,[6]; Water (pH 5.9),16 (pH 5.9) mg/100 ml solution
same,solubility thermodynamic,"[6]; pH 0.2, aqueous buffer, 1.0N HCl (pH 0.2)",6200 µg/mL
same,solubility thermodynamic,"[6]; pH 1.1, aqueous buffer, 0.1N HCl (pH 1.1)",830 µg/mL
same,solubility thermodynamic,"[6]; pH 2, aqueous buffer, Buffer pH 2 (citrate/HCl) (pH 2.0)",180 µg/mL
same,solubility thermodynamic,"[6]; pH 2.1, aqueous buffer, 0.01N HCl (pH 2.1)",180 µg/mL
same,solubility thermodynamic,"[6]; pH 3, aqueous buffer, Buffer pH 3 (citrate/HCl) (pH 3.0)",100 µg/mL
same,solubility thermodynamic,"[6]; pH 4, aqueous buffer, Buffer pH 4 (citrate/HCl) (pH 4.0)",90 µg/mL
same,solubility,[7]; 5% HPβCD in water (pH = 5.8),2.4 (pH = 5.8) mg/ml solution
same,solubility,[7]; 10% HPβCD in water (pH = 6.0),6.5 (pH = 6.0) mg/ml solution
same,solubility,[7]; 20% HPβCD in water (pH = 6.0),17 (pH = 6.0) mg/ml solution
same,solubility,[7]; 40% HPβCD in water (pH = 5.9),40 (pH = 5.9) mg/ml solution
same,solubility,[7]; Water (pH = 5.9),0.16 (pH = 5.9) mg/ml solution
